Experimental data reported in ChEMBL document CHEMBL1121435, “Prostaglandin analogues possessing antinidatory effects. 2. Modification of the alpha chain” (1980).

These compounds were tested on Rattus norvegicus (assay: Antinidatory effect was measured in the rat, relative to that of prostaglandin F2-alpha (ED50 = 1.3 (0.9-1.87)mg/kg)).
Assay type: functional
`COC(=O)C/C=C/CCC[C@@H]1[C@@H](/C=C/[C@@H](O)COc2ccccc2)[C@H](O)C[C@@H]1O` showed a Relative activity of 40. In the case of `COC(=O)C/C=C/C=C\C[C@@H]1[C@@H](/C=C/[C@@H](O)COc2ccccc2)[C@H](O)C[C@@H]1O`, the Relative activity was 800. With `O=C(O)/C=C/CCCC[C@@H]1[C@@H](/C=C/[C@@H](O)COc2cccc(C(F)(F)F)c2)[C@H](O)C[C@@H]1O` the Relative activity was 4. In the case of `COC(=O)C/C=C/C=C\C[C@@H]1[C@@H](/C=C/[C@@H](O)COc2cccc(Cl)c2)[C@H](O)C[C@@H]1O`, the Relative activity was 800. `COC(=O)/C=C/C/C=C/C[C@@H]1[C@@H](/C=C/[C@@H](O)COc2cccc(Cl)c2)[C@H](O)C[C@@H]1O` showed a Relative activity of 100. `COC(=O)CC=C/C=C\C[C@@H]1[C@@H](/C=C/[C@@H](O)COc2ccccc2)[C@H](O)C[C@@H]1O` was tested, and the Relative activity was 1200. `COC(=O)/C=C/C/C=C\C[C@@H]1[C@@H](/C=C/[C@@H](O)COc2cccc(C(F)(F)F)c2)[C@H](O)C[C@@H]1O` showed a Relative activity of 100. `COC(=O)C/C=C/C=C\C[C@@H]1[C@@H](/C=C/[C@@H](O)COc2cccc(C(F)(F)F)c2)[C@H](O)C[C@@H]1O` was tested, and the Relative activity was 100. Compound `COC(=O)C/C=C/C=C/C[C@@H]1[C@@H](/C=C/[C@@H](O)COc2cccc(Cl)c2)[C@H](O)C[C@@H]1O` has a Relative activity of 100. In the case of `COC(=O)CC=C/C=C\C[C@@H]1[C@@H](/C=C/[C@@H](O)COc2cccc(Cl)c2)[C@H](O)C[C@@H]1O`, the Relative activity was 600. `COC(=O)CCC/C=C\C[C@@H]1[C@@H](/C=C/[C@@H](O)COc2cccc(C(F)(F)F)c2)[C@H](O)C[C@@H]1O` gave a Relative activity of 100. For `O=C(O)/C=C/C/C=C\C[C@@H]1[C@@H](/C=C/[C@@H](O)COc2cccc(Cl)c2)[C@H](O)C[C@@H]1O`, the Relative activity was 200. `COC(=O)C/C=C/C=C/C[C@@H]1[C@@H](/C=C/[C@@H](O)COc2ccccc2)[C@H](O)C[C@@H]1O` was tested, and the Relative activity was 200. `COC(=O)/C=C/C/C=C\C[C@@H]1[C@@H](/C=C/[C@@H](O)COc2ccc(Cl)cc2)[C@H](O)C[C@@H]1O` showed a Relative activity of 100. `COC(=O)/C=C/C=C/CC[C@@H]1C(/C=C/[C@@H](O)COc2ccccc2)[C@H](O)C[C@@H]1O` (some centres not stated) showed a Relative activity of 20. `COC(=O)CCC/C=C\C[C@@H]1[C@@H](/C=C/[C@@H](O)COc2cccc(Cl)c2)[C@H](O)C[C@@H]1O` was tested, and the Relative activity was 200. With `COC(=O)C(CC/C=C\C[C@@H]1[C@@H](/C=C/[C@@H](O)COc2cccc(Cl)c2)[C@H](OC2CCCCO2)C[C@@H]1OC1CCCCO1)[Se]c1ccccc1` (some centres not stated) the Relative activity was 1.

The compounds below were run on Rattus norvegicus (assay: Antinidatory effect was measured in the rat, relative to that of prostaglandin F2-alpha (ED50 = 1.3 (0.9-1.87) mg/kg); Range 4-8).
Assay type: functional
For `COC(=O)/C=C/C=C/CC[C@@H]1C(/C=C/[C@@H](O)COc2cccc(Cl)c2)[C@H](O)C[C@@H]1O` (some centres not stated), the Relative activity was 4.

These compounds were tested on Rattus norvegicus (assay: Antinidatory effect was measured in the rat, relative to that of prostaglandin F2alpha (ED50 = 1.3 (0.9-1.87) mg/kg); Range 200-400).
Assay type: functional
In the case of `COC(=O)C/C=C/C=C\C[C@@H]1[C@@H](/C=C/[C@@H](O)COc2ccc(Cl)cc2)[C@H](O)C[C@@H]1O`, the Relative activity was 200. For `COC(=O)/C=C/C/C=C\C[C@@H]1[C@@H](/C=C/[C@@H](O)COc2ccccc2)[C@H](O)C[C@@H]1O`, the Relative activity was 200. With `COC(=O)CCC/C=C\C[C@@H]1[C@@H](/C=C/[C@@H](O)COc2ccccc2)[C@H](O)C[C@@H]1O` the Relative activity was 200.

Each compound was assayed on Rattus norvegicus (assay: Antinidatory effect was measured in the rat, relative to that of prostaglandin F2-alpha (ED50 = 1.3 (0.9-1.87) mg/kg); Range 2-4).
Assay type: functional
`O=C(O)/C=C\CCCC[C@@H]1[C@@H](/C=C/[C@@H](O)COc2cccc(C(F)(F)F)c2)[C@H](O)C[C@@H]1O` gave a Relative activity of 2.
